Source: patent publication US8512789B2, “High-potency sweetener composition with dietary fiber and compositions sweetened therewith” (The Coca-Cola Company, priority 2005, dated 2013)

Columns and labels:
[1] = Rate of dissolution of rebaudioside A polymorph and amorphous forms in H2O at 25° C.; assay type: physicochemical
[2] = Sensory evaluation of sweetness linger by a panel of experts; assay type: in vivo; parameters: key: 0=no sweetness linger; 1=very slight sweetness linger; 2 slight sweetness linger; 3 moderate sweetness linger; 4=moderately high sweetness linger; 5 high sweetness linger
Procedure: In a particular embodiment, a panel of assessors is used to measure the reduction of sweetness linger. Briefly described, a panel of assessors (generally 8 to 12 individuals) is trained to evaluate sweetness perception and measure sweetness at several time points from when the sample is initially taken into the mouth until 3 minutes after it has been expectorated. […] A decrease in score for a time point measured after the sample has cleared the mouth indicates there has been a reduction in sweetness perception.
The panel of assessors may be trained using procedures well known to those of ordinary skill in the art. In a particular embodiment, the panel of assessors may be trained using the Spectrum™ Descriptive Analysis Method (Meilgaard et al, Sensory Evaluation Techniques, 3rd edition, Chapter 11). Desirably, the focus of training should be the recognition of and the measure of the basic tastes; specifically, sweet. […]
Sensory evaluation of the samples prepared in Example Set C was carried out under the following protocol, similar to that described hereinabove. […] Immediately upon sensing maximal sweetness, the sample was expectorated, the mouth was rinsed with water and the rate of sweetness decay (“Sweetness Linger”) was measured, where attention was focused on the sweetness 3-4 min after the water rinse. […]

Substance | Rate of dissolution in H2O at 25° C. [1] | Rate of dissolution in H2O at 25° C. (in words) [1] | Sweetness Linger rating ([2]; Example Set G: citric acid/potassium citrate composition equivalent to diet lemon-lime beverage, 400 ppm REBA base (sugar control 8 g/100 ml), scale 0-5, sweetness 3-4 min after water rinse) | Sweetness Linger rating ([2]; Example Set H: carbon-treated water with phosphoric acid (75%), pH 2.4-2.5, REBA base (sugar control 10 g/100 ml), scale 0-5)
rebaudioside A [Form 4] | (>35%/ %/5 minutes | High |  | 
rebaudioside A |  |  | 5 | 5
rebaudioside A [Form 3] | (>30%/ %/5 minutes | High |  | 
rebaudioside A [Form 1] | (<0.2%/ %/60 minutes | Very low |  | 
rebaudioside A [Form 2] |  | Intermediate |  | 
